Values joined by “and” are separate entries in the source; they are usually repeats but may differ in a detail not shown here. Equal values may be shown once.
Tested on: A375 multi-cell spheroids with HUVEC/MSC, viability
Test: Anticancer human tumor A375 cell line growth inhibition [GQUAD];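 also: spheroids exposed to compounds for seven days before readout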
Settings: for viability, T/C: stronger effect = lower value
From the text: DNA G-quadruplex Stabilizer Agents in Combinations in Complex Spheroids
A high-throughput screen of multi-cell type tumor spheroids was designed to identify active combinations of DNA G-quadruplex stabilizer agents and targeted small molecules. Complex spheroids include a stromal component modeled by human endothelial cells (HUVEC) and fibroblasts modeled by human mesenchymal stem cells (MSCs). The concentration ranges selected for each drug and investigational agent were based upon clinically achievable concentrations if the clinical Cmax of the agent was known.
Compounds. The drugs and investigational agents: pidnarulex (CX-5461; NSC782164), APTO-253 (NSC789042), BRACO-19 (NSC847499), peposertib (NSC802822), ceralasertib (NSC780249), elimusertib (NSC800525), camonsertib (NSC841442), AZD-1390 (NSC803789), olaparib (NSC753686), talazoparib (NSC767125), ART-558 (NSC835418), sotorasib (NSC818433), MRTX-1133 (NSC836407), SN-38 (NSC673596), topotecan (NSC609699), etoposide (NSC141540), doxorubicin (NSC123127), gemcitabine (NSC613327), 5-fluorouracil (NSC19893), paclitaxel (NSC125973), vemurafenib (NSC761431), panobinostat (NSC761190), R-306465 (JNJ-16241199; NSC773264), adavosertib (NSC754352), TP-3654 (NSC805149), carboplatin (NSC241240), KSQ-4279 (NSC840948), and staurosporine (NSC755774) were obtained from the National Cancer Institute (NCI) Developmental Therapeutics Program Chemical Repository (34). The FDA-approved anticancer drug set is available from the NCI Developmental Therapeutics Program. […] The stock solutions were prepared in dimethyl sulfoxide (DMSO, Sigma-Aldrich, St. Louis, MO, cat. D2650) at 800-fold the tested concentration and stored at -70 degrees C prior to their use. All drugs and investigational agents were tested over a range starting from a high concentration at or near the clinical Cmax and decreasing in half-log increments. If the clinical Cmax for an agent had not been determined, the highest concentration tested was 10 microM.
2.3 Cell Culture. All cells were maintained in an incubator at 37 degrees C and 5% CO2 with 95% humidity. The PDC lines were cultured according to standard operating procedures established by the NCI PDMR. All PDCs were thawed and cultured in Matrigel-coated flasks prepared with a working solution of 1X Ham's F-12 nutrient mix, without supplementation (Invitrogen, cat. 11765054), 100 U/mL penicillin-streptomycin (Invitrogen, cat. 15140122), and 2.5% Matrigel (Corning Inc., cat. 354248) for the first three passages. The 857933-349-R-J2-PDC line was cultured in 6C/Colon 1B media, which includes advanced DMEM/F-12 (Thermo Fisher Scientific, cat. 12634028), 10 mM HEPES (Thermo Fisher Scientific, cat. 15630080), 1X GlutaMAX supplement (Thermo Fisher Scientific, cat. 35050061), 0.1 mg/mL primocin (InvivoGen, cat. ant-pm-2), 10% defined fetal bovine serum, heat inactivated (HyClone Laboratories Inc., cat. SH30070.03HI), 50% L-WRN conditioned media (ATCC, cat. CRL-3276), 1.25 mM N-Acetyl-L-cysteine (Sigma-Aldrich, cat. A9165), 10 mM nicotinamide (Sigma-Aldrich, cat. N0636), 1X B-27 supplement (Thermo Fisher Scientific, cat. 17504044), 1X N-2 supplement (Thermo Fisher Scientific, cat. 17502048), 10 microM Y-27632 dihydrochloride (Tocris Bioscience, cat. 1254), and 50 ng/mL human EGF recombinant protein (Thermo Fisher Scientific, cat. PHG0311). The 485176-168-R4-J1-PDC line was cultured in Panc media, which includes all 6C/Colon 1B media components plus 100 ng/mL human FGF-10 (Thermo Fisher Scientific, cat. 100-26), 500 nM SB-431542 (Selleckchem, cat. S1067), and gastrin (Tocris, cat. 3006).
[…]

COc1ncnc(C2CC2)c1-c1ncc2cnn(Cc3ccc(-c4nc(C(F)(F)F)cn4C(C)C)cc3)c2n1 + Cc1cnc(CNC(=O)c2c(=O)c3ccc(N4CCCN(C)CC4)nc3n3c2sc2ccccc23)cn1
IC50 (curve of first compound, second compound 0.0316 µM): > 10000 nM | IC50 (curve of first compound, second compound 0.1 µM): > 10000 nM | IC50 (curve of first compound, second compound 0.316 µM): < 31.6 nM | IC50 (curve of first compound, second compound 1 µM): < 31.6 nM | IC50 (curve of first compound, second compound 3.16 µM): < 31.6 nM | IC50 (curve of first compound, second compound 10 µM): < 31.6 nM | viability, T/C (second compound 0.0316 µM, first compound 0.0316 µM): 101% | viability, T/C (second compound 0.0316 µM, first compound 0.1 µM): 110% | viability, T/C (second compound 0.0316 µM, first compound 0.316 µM): 102% | viability, T/C (second compound 0.0316 µM, first compound 1 µM): 103% | viability, T/C (second compound 0.0316 µM, first compound 3.16 µM): 104% | viability, T/C (second compound 0.0316 µM, first compound 10 µM): 111% | viability, T/C (second compound 0.1 µM, first compound 0.0316 µM): 69.3% | viability, T/C (second compound 0.1 µM, first compound 0.1 µM): 73.5% | viability, T/C (second compound 0.1 µM, first compound 0.316 µM): 57.3% | viability, T/C (second compound 0.1 µM, first compound 1 µM): 61.4% | viability, T/C (second compound 0.1 µM, first compound 3.16 µM): 70.3% | viability, T/C (second compound 0.1 µM, first compound 10 µM): 61.2% | viability, T/C (second compound 0.316 µM, first compound 0.0316 µM): 49.3% | viability, T/C (second compound 0.316 µM, first compound 0.1 µM): 43.6% | viability, T/C (second compound 0.316 µM, first compound 0.316 µM): 47.1% | viability, T/C (second compound 0.316 µM, first compound 1 µM): 49% | viability, T/C (second compound 0.316 µM, first compound 3.16 µM): 46.2% | viability, T/C (second compound 0.316 µM, first compound 10 µM): 47.7% | viability, T/C (second compound 1 µM, first compound 0.0316 µM): 36.2% | viability, T/C (second compound 1 µM, first compound 0.1 µM): 35% | viability, T/C (second compound 1 µM, first compound 0.316 µM): 34.5% | viability, T/C (second compound 1 µM, first compound 1 µM): 38.5% | viability, T/C (second compound 1 µM, first compound 3.16 µM): 33.5% | viability, T/C (second compound 1 µM, first compound 10 µM): 33.5% | viability, T/C (second compound 3.16 µM, first compound 0.0316 µM): 29.6% | viability, T/C (second compound 3.16 µM, first compound 0.1 µM): 37.2% | viability, T/C (second compound 3.16 µM, first compound 0.316 µM): 30.9% | viability, T/C (second compound 3.16 µM, first compound 1 µM): 33.5% | viability, T/C (second compound 3.16 µM, first compound 3.16 µM): 31.7% | viability, T/C (second compound 3.16 µM, first compound 10 µM): 33.9% | viability, T/C (second compound 10 µM, first compound 0.0316 µM): 30% | viability, T/C (second compound 10 µM, first compound 0.1 µM): 26% | viability, T/C (second compound 10 µM, first compound 0.316 µM): 27.6% | viability, T/C (second compound 10 µM, first compound 1 µM): 26.4% | viability, T/C (second compound 10 µM, first compound 3.16 µM): 32.7% | viability, T/C (second compound 10 µM, first compound 10 µM): 31.9%

O=C(c1cc(Cc2n[nH]c(=O)c3ccccc23)ccc1F)N1CCN(C(=O)C2CC2)CC1
viability, T/C (compound 0.0316 µM): 93.2% and 101% and 92.1% | viability, T/C (compound 0.1 µM): 92% and 98.2% and 93.7% | viability, T/C (compound 0.316 µM): 98.1% and 94.9% and 107% | viability, T/C (compound 1 µM): 101% (2×) and 99.2% | viability, T/C (compound 3.16 µM): 101% and 105% and 95.4% | viability, T/C (compound 10 µM): 91% and 84.7% and 87.8% | IC50 (curve of compound): > 10000 nM
